Results reported in patent publication US20230255943A1, “MMP-9 AND MMP-12 INHIBITION FOR TREATING SPINAL CORD INJURY OR RELATED INJURY TO NEUROLOGICAL TISSUE” (The University of Birmingham, priority 2020, published 2023).

Legend:
[1] = tested on: mice with DC crush injury; test: Tape removal test (sensory function) after DC injury in mice; format: in vivo, mouse
Procedure: Functional testing after DC lesion and treatment was carried out as described previously (N. D. Fagoe, C. L. Attwell, R. Eggers, L. Tuinenbreijer, D. Kouwenhoven, J. Verhaagen, M. R. Mason, Evaluation of Five Tests for Sensitivity to Functional Deficits following Cervical or Thoracic Dorsal Column Transection in the Rat. PLoS One 11, e0150141 (2016)).
Briefly, animals (n=18/group) were first trained to master traversing a horizontal ladder for 1 w before functional testing. Baseline parameters were established by performing tests at 2-3d before injury. Animals were then tested at 2d, 1 w, 2 w, 3 w, 4 w, 5 w and 6 w after DC injury+treatment. Experiments were performed by an observer masked to the treatment conditions in the same order and time of day with each test performed for 3 individual trials.
Tape removal test (sensory function): The tape removal test determines touch perception from the left hind paw. After holding animals with both hind-paws extended, the time it took for the animal to detect and remove a piece of tape of 15×15 mm (Kip Hochkrepp, Bocholt, Germany) affixed to the palm of the left hind-paw was recorded and used to calculate the mean sensing time.

[2] = tested on: mice with DC crush injury; test: NF200+ spared fibres above and below the lesion; format: in vivo, mouse; settings: oral
IL-1β, TNF-α and IL-6 = test: Proinflammatory pain markers after CC SCI in mice; format: in vivo, mouse; settings: oral gavage immediately after injury
Procedure: CC SCI was administered at the T7-T8 vertebral level after exposure of T6-T9 by laminectomy. The aneurysm clip applicator was oriented in a bilateral direction and an aneurysm clip with a closing force of 24 g was applied extradurally for 60 s, as described previously (A. S. Rivlin, C. H. Tator, Effect of duration of acute spinal cord compression in a new acute cord injury model in the rat. Surg Neurol 10, 38-43 (1978):E. Esposito, I. Paterniti, E. Mazzon, T. Genovese, M. Galuppo, R. Meli, P. Bramanti, S. Cuzzocrea, MK801 attenuates secondary injury in a mouse experimental compression model of spinal cord trauma. BMC Neurosci 12, 31 (2011)).
The urinary bladders were manually emptied twice daily until bladder function was regained. Adult male C57BL6 mice (25-30 g) (Charles River, Margate, UK) were randomly allocated to either: (1), Sham (control; laminectomy but no CC SCI); (2), CC SCI+vehicle; (3), CC SCI+200 mg/kg AZD1236 (oral); (4), CC SCI+5 mg/kg AZD1236 (it). All experiments were performed with n=6 mice/group and repeated on 3 independent occasions (total=18 mice/group/test).
The lesion site+5 mm either side (DC and CC SCI, n=6 mice/rats/group, 2 independent repeats (total n=12 mice/rats/group)) was dissected and rapidly frozen in liquid N2 and stored at −80° C. until required. […] The levels of mRNA of MMP-9, MMP-12, IL-1β, TNF-α and IL-6 were determined using pre-validated mouse primer sequences from complimentary DNA prepared from extracted mRNA and qRT-PCR was performed using a LightCycler PCR machine (Roche, Burgess Hill, UK) (M. L. Read, S. Mir, R. Spice, R. J. Seabright, E. L. Suggate, Z. Ahmed, M. Berry, A. Logan, Profiling RNA interference (RNAi)-mediated toxicity in neural cultures for effective short interfering RNA design. J Gene Med 11, 523-534 (2009)). […] Fold changes were computed using the ΔΔCt method (M. L. Read, S. Mir, R. Spice, R. J. Seabright, E. L. Suggate, Z. Ahmed, M. Berry, A. Logan, Profiling RNA interference (RNAi)-mediated toxicity in neural cultures for effective short interfering RNA design. J Gene Med 11, 523-534 (2009).

[3] = tested on: rats with DC crush injury; test: CAP traces after DC injury in rats; format: in vivo; settings: rat DC injury, 6 weeks
Procedure: The efficacy of oral AZD3342 in the DC injury model in adult Sprague-Dawley rat was also assessed. Animals were divided into 6 groups: (1), Sham (control); (2), DC crush injury+Vehicle; (3), DC crush injury+15 mg/kg AZD3342; (4), DC crush injury+75 mg/kg […]; (5), DC crush injury+375 mg/kg AZD3342; and (6), DC crush injury+Melatonin. Animals were dosed twice daily with oral AZD3342 or vehicle with the experimenters masked to the treatment conditions. These experiments were performed with n=6 rats/group and repeated on 2-3 independent occasions (total n=12-18 rats/group/test).
Compound action potentials (CAP) were recorded at 6 w weeks after DC injury and treatment, as described previously—for example B. C. Hains, C. Y. Saab, A. C. […]
Briefly, the experimenter was masked to the treatment status of the animals and the CAP amplitude was calculated between the negative deflection after the stimulus artifact and the next peak of the wave. CAP area was also calculated by rectifying the CAP component (full-wave rectification) and measuring its area. To confirm our recordings and that a CAP could not be recorded, the dorsal half of the spinal cord was transected after each experiment between the stimulating and recording electrodes.

[4] = tested on: mice with DC crush injury; test: Spinal cord water content (oedema) after DC crush injury in mice; format: in vivo, mouse; settings: IP, twice daily

C[C@]1(CS(=O)(=O)N2CC=C(C#Cc3cnc(C4CC4)nc3)CC2)NC(=O)NC1=O [AZD1236]
sensory function, 24-h delayed treatment ([1]; optimal doses, 24 h delay vs immediate): equally as effective as immediate delivery
improvement in sensory function ([1]; oral): 85%
mean tape sensing and removal time ([1]; oral, by 3 weeks): indistinguishable from sham-treated groups
NF200+ spared fibres above (T9) and below (T7) the lesion site [2]: significantly preserved axon fibres
proinflammatory pain markers after CC injury, comparison with pain medications (FIG. 7) (IL-1β, TNF-α and IL-6): significantly attenuates

C[C@]1(CS(=O)(=O)N2CCC(Oc3ccc(Cl)cn3)CC2)NC(=O)NC1=O [AZD3342, (5S)-5-[4-(5-chloro-pyridin-2-yloxy)-piperidine-1-sulfonylmethyl]-5-methylimidazolidine-2,4-dione]
electrophysiological CAP traces [3]: significantly improved

CCN(CC)Cc1cc(C)c(N(Cc2ccccc2)S(=O)(=O)c2ccc(OC)cc2)c(C(=O)NO)c1 [MMP-9 Inhibitor I, reference compound]
SCI-induced oedema with tool inhibitors singly or in combination (FIG. 3D) [4]: suboptimal therapeutic benefits
